Results as given in ChEMBL document CHEMBL4138123, “Design, synthesis and biological evaluation of novel pyrazolochalcones as potential modulators of PI3K/Akt/mTOR pathway and inducers of apoptosis in breast cancer cells” (Eur J Med Chem, 2017).

Key:
Format in all cases: functional
KM12 [1] = experiment: Cytotoxicity against human KM12 cells assessed as growth inhibition after 48 hrs by sulforhodamine B assay; conditions: KM12, 48 h
SN12C = experiment: Cytotoxicity against human SN12C cells assessed as growth inhibition after 48 hrs by sulforhodamine B assay
Hs-578T = experiment: Cytotoxicity against human Hs 578T cells assessed as growth inhibition after 48 hrs by sulforhodamine B assay
NCI/ADR-RES = experiment: Cytotoxicity against human NCI/ADR-RES cells assessed as cell growth at 0.01 uM after 48 hrs by sulforhodamine B assay relative to control; conditions: read-out: Activity
OVCAR-3 [2] = experiment: Cytotoxicity against human OVCAR3 cells assessed as cell growth at 0.01 uM after 48 hrs by sulforhodamine B assay relative to control; conditions: OVCAR-3, 48 h, read-out: Activity
HL-60(TB) = experiment: Cytotoxicity against human HL-60(TB) cells assessed as cell growth at 0.1 uM after 48 hrs by sulforhodamine B assay relative to control; conditions: HL-60, 48 h, read-out: Activity
HCC 2998 [3] = experiment: Cytotoxicity against human HCC2998 cells assessed as cell growth at 0.1 uM after 48 hrs by sulforhodamine B assay relative to control; conditions: HCC 2998, 48 h, read-out: Activity
UACC-257 [4] = experiment: Cytotoxicity against human UACC257 cells assessed as cell growth at 0.1 uM after 48 hrs by sulforhodamine B assay relative to control; conditions: UACC-257, 48 h, read-out: Activity
UACC-62 [5] = experiment: Cytotoxicity against human UACC62 cells assessed as cell growth at 0.1 uM after 48 hrs by sulforhodamine B assay relative to control; conditions: UACC-62, 48 h, read-out: Activity
OVCAR-4 = experiment: Cytotoxicity against human OVCAR4 cells assessed as cell growth at 0.1 uM after 48 hrs by sulforhodamine B assay relative to control; conditions: OVCAR-4, 48 h, read-out: Activity
DU-145 = experiment: Cytotoxicity against human DU145 cells assessed as cell growth at 0.1 uM after 48 hrs by sulforhodamine B assay relative to control; conditions: DU-145, 48 h, read-out: Activity
RPMI-8226 [6] = experiment: Cytotoxicity against human RPMI8226 cells assessed as cell growth at 1 uM after 48 hrs by sulforhodamine B assay relative to control; conditions: RPMI-8226, 48 h, read-out: Activity
NCI-H226 = experiment: Cytotoxicity against human NCI-H226 cells assessed as cell growth at 1 uM after 48 hrs by sulforhodamine B assay relative to control; conditions: NCI-H226, 48 h, read-out: Activity
HCC 2998 [7] = experiment: Cytotoxicity against human HCC2998 cells assessed as cell growth at 1 uM after 48 hrs by sulforhodamine B assay relative to control; conditions: HCC 2998, 48 h, read-out: Activity
M14 = experiment: Cytotoxicity against human M14 cells assessed as cell growth at 1 uM after 48 hrs by sulforhodamine B assay relative to control; conditions: M14, 48 h, read-out: Activity
UACC-257 [8] = experiment: Cytotoxicity against human UACC257 cells assessed as cell growth at 1 uM after 48 hrs by sulforhodamine B assay relative to control; conditions: UACC-257, 48 h, read-out: Activity
OVCAR-5 = experiment: Cytotoxicity against human OVCAR5 cells assessed as cell growth at 1 uM after 48 hrs by sulforhodamine B assay relative to control; conditions: OVCAR-5, 48 h, read-out: Activity
SK-OV-3 [9] = experiment: Cytotoxicity against human SKOV3 cells assessed as cell growth at 1 uM after 48 hrs by sulforhodamine B assay relative to control; conditions: SK-OV-3, 48 h, read-out: Activity
786-0 = experiment: Cytotoxicity against human 786-0 cells assessed as cell growth at 1 uM after 48 hrs by sulforhodamine B assay relative to control; conditions: 786-0, 48 h, read-out: Activity
K562 = experiment: Cytotoxicity against human K562 cells assessed as cell growth at 10 uM after 48 hrs by sulforhodamine B assay relative to control; conditions: K562, 48 h, read-out: Activity
NCI-H322M = experiment: Cytotoxicity against human NCI-H322M cells assessed as cell growth at 10 uM after 48 hrs by sulforhodamine B assay relative to control; conditions: read-out: Activity
UACC-257 [10] = experiment: Cytotoxicity against human UACC257 cells assessed as cell growth at 10 uM after 48 hrs by sulforhodamine B assay relative to control; conditions: UACC-257, 48 h, read-out: Activity
OVCAR-3 [11] = experiment: Cytotoxicity against human OVCAR3 cells assessed as cell growth at 10 uM after 48 hrs by sulforhodamine B assay relative to control; conditions: OVCAR-3, 48 h, read-out: Activity
SK-OV-3 [12] = experiment: Cytotoxicity against human SKOV3 cells assessed as cell growth at 10 uM after 48 hrs by sulforhodamine B assay relative to control; conditions: SK-OV-3, 48 h, read-out: Activity
UO-31 = experiment: Cytotoxicity against human UO31 cells assessed as cell growth at 10 uM after 48 hrs by sulforhodamine B assay relative to control; conditions: UO-31, 48 h, read-out: Activity
PC-3 = experiment: Cytotoxicity against human PC3 cells assessed as cell growth at 10 uM after 48 hrs by sulforhodamine B assay relative to control; conditions: PC-3, 48 h, read-out: Activity
BT-549 = experiment: Cytotoxicity against human BT549 cells assessed as cell growth at 10 uM after 48 hrs by sulforhodamine B assay relative to control; conditions: BT-549, 48 h, read-out: Activity
T47D = experiment: Cytotoxicity against human T47D cells assessed as cell growth at 10 uM after 48 hrs by sulforhodamine B assay relative to control; conditions: read-out: Activity
RPMI-8226 [13] = experiment: Cytotoxicity against human RPMI8226 cells assessed as cell growth at 100 uM after 48 hrs by sulforhodamine B assay relative to control; conditions: RPMI-8226, 48 h, read-out: Activity
KM12 [14] = experiment: Cytotoxicity against human KM12 cells assessed as cell growth at 100 uM after 48 hrs by sulforhodamine B assay relative to control; conditions: KM12, 48 h, read-out: Activity
SF-539 = experiment: Cytotoxicity against human SF539 cells assessed as cell growth at 100 uM after 48 hrs by sulforhodamine B assay relative to control; conditions: SF-539, 48 h, read-out: Activity
SK-MEL-28 = experiment: Cytotoxicity against human SK-MEL-28 cells assessed as cell growth at 100 uM after 48 hrs by sulforhodamine B assay relative to control; conditions: SK-MEL-28, 48 h, read-out: Activity
SK-MEL-5 = experiment: Cytotoxicity against human SK-MEL-5 cells assessed as cell growth at 100 uM after 48 hrs by sulforhodamine B assay relative to control; conditions: SK-MEL-5, 48 h, read-out: Activity
UACC-62 [15] = experiment: Cytotoxicity against human UACC62 cells assessed as cell growth at 100 uM after 48 hrs by sulforhodamine B assay relative to control; conditions: UACC-62, 48 h, read-out: Activity
OVCAR-3 [16] = experiment: Cytotoxicity against human OVCAR3 cells assessed as cell growth at 100 uM after 48 hrs by sulforhodamine B assay relative to control; conditions: OVCAR-3, 48 h, read-out: Activity
TK-10 = experiment: Cytotoxicity against human TK10 cells assessed as cell growth at 100 uM after 48 hrs by sulforhodamine B assay relative to control; conditions: TK-10, 48 h, read-out: Activity

COc1cc(-c2cc(/C=C/C(=O)c3ccc(N)cc3)[nH]n2)cc(OC)c1OC
GI50 (KM12 [1]): 1.41 µM | LC50 (KM12 [1]): 7.27 µM | TGI (KM12 [1]): 2.88 µM | GI50 (SN12C): 1.86 µM | LC50 (SN12C): 13.4 µM | TGI (SN12C): 4.52 µM | GI50 (Hs-578T): 4.33 µM | LC50 (Hs-578T): > 100 µM | TGI (Hs-578T): > 100 µM | growth at 0.01 µM (NCI/ADR-RES): 106% | growth at 0.01 µM (OVCAR-3 [2]): 101% | growth at 0.1 µM (HL-60(TB)): 99% | growth at 0.1 µM (HCC 2998 [3]): 108% | growth at 0.1 µM (UACC-257 [4]): 93% | growth at 0.1 µM (UACC-62 [5]): 99% | growth at 0.1 µM (OVCAR-4): 105% | growth at 0.1 µM (DU-145): 104% | growth at 1 µM (RPMI-8226 [6]): 28% | growth at 1 µM (NCI-H226): 88% | growth at 1 µM (HCC 2998 [7]): 110% | growth at 1 µM (M14): 90% | growth at 1 µM (UACC-257 [8]): 91% | growth at 1 µM (OVCAR-5): 89% | growth at 1 µM (SK-OV-3 [9]): 104% | growth at 1 µM (786-0): 81% | growth at 10 µM (K562): 2% | growth at 10 µM (NCI-H322M): -32% | growth at 10 µM (UACC-257 [10]): -59% | growth at 10 µM (OVCAR-3 [11]): -71% | growth at 10 µM (SK-OV-3 [12]): -9% | growth at 10 µM (UO-31): -84% | growth at 10 µM (PC-3): 1% | growth at 10 µM (BT-549): -89% | growth at 10 µM (T47D): -38% | growth at 100 µM (RPMI-8226 [13]): -40% | growth at 100 µM (KM12 [14]): -79% | growth at 100 µM (SF-539): -99% | growth at 100 µM (SK-MEL-28): -83% | growth at 100 µM (SK-MEL-5): -94% | growth at 100 µM (UACC-62 [15]): -92% | growth at 100 µM (OVCAR-3 [16]): -93% | growth at 100 µM (TK-10): -81%

COc1cc(-c2cc(/C=C/C(=O)c3ccc4c(c3)OCO4)[nH]n2)cc(OC)c1OC
LC50 (SN12C): > 100 µM | TGI (SN12C): > 100 µM | LC50 (Hs-578T): > 100 µM | TGI (Hs-578T): 78.7 µM | growth at 0.01 µM (NCI/ADR-RES): 96% | growth at 0.01 µM (OVCAR-3 [2]): 104% | growth at 0.1 µM (HL-60(TB)): 95% | growth at 0.1 µM (HCC 2998 [3]): 102% | growth at 0.1 µM (UACC-257 [4]): 91% | growth at 0.1 µM (UACC-62 [5]): 96% | growth at 0.1 µM (OVCAR-4): 92% | growth at 0.1 µM (DU-145): 102% | growth at 1 µM (RPMI-8226 [6]): 36% | growth at 1 µM (NCI-H226): 89% | growth at 1 µM (HCC 2998 [7]): 106% | growth at 1 µM (M14): 100% | growth at 1 µM (UACC-257 [8]): 81% | growth at 1 µM (OVCAR-5): 88% | growth at 1 µM (SK-OV-3 [9]): 102% | growth at 1 µM (786-0): 96% | growth at 10 µM (K562): -1% | growth at 10 µM (NCI-H322M): 3% | growth at 10 µM (UACC-257 [10]): 2% | growth at 10 µM (OVCAR-3 [11]): 4% | growth at 10 µM (SK-OV-3 [12]): 33% | growth at 10 µM (UO-31): -29% | growth at 10 µM (PC-3): 6% | growth at 10 µM (BT-549): -20% | growth at 10 µM (T47D): 6% | growth at 100 µM (RPMI-8226 [13]): -37% | growth at 100 µM (KM12 [14]): 3% | growth at 100 µM (SF-539): -83% | growth at 100 µM (SK-MEL-28): -16% | growth at 100 µM (SK-MEL-5): 8% | growth at 100 µM (UACC-62 [15]): 22% | growth at 100 µM (OVCAR-3 [16]): -38% | growth at 100 µM (TK-10): -47%

COc1ccc(C(=O)/C=C/c2cc(-c3cc(OC)c(OC)c(OC)c3)n[nH]2)cc1
LC50 (KM12 [1]): 6.02 µM | TGI (KM12 [1]): 3.06 µM | LC50 (Hs-578T): > 100 µM | TGI (Hs-578T): > 100 µM | growth at 0.01 µM (NCI/ADR-RES): 102% | growth at 0.01 µM (OVCAR-3 [2]): 101% | growth at 0.1 µM (HL-60(TB)): 108% | growth at 0.1 µM (HCC 2998 [3]): 97% | growth at 0.1 µM (UACC-257 [4]): 97% | growth at 0.1 µM (UACC-62 [5]): 100% | growth at 0.1 µM (OVCAR-4): 94% | growth at 0.1 µM (DU-145): 101% | growth at 1 µM (RPMI-8226 [6]): 27% | growth at 1 µM (NCI-H226): 92% | growth at 1 µM (HCC 2998 [7]): 94% | growth at 1 µM (M14): 99% | growth at 1 µM (UACC-257 [8]): 87% | growth at 1 µM (OVCAR-5): 95% | growth at 1 µM (SK-OV-3 [9]): 98% | growth at 1 µM (786-0): 94% | growth at 10 µM (K562): -17% | growth at 10 µM (NCI-H322M): -60% | growth at 10 µM (UACC-257 [10]): -65% | growth at 10 µM (OVCAR-3 [11]): -72% | growth at 10 µM (SK-OV-3 [12]): 18% | growth at 10 µM (UO-31): -93% | growth at 10 µM (PC-3): -68% | growth at 10 µM (BT-549): -65% | growth at 10 µM (T47D): 1% | growth at 100 µM (RPMI-8226 [13]): -34% | growth at 100 µM (KM12 [14]): -74% | growth at 100 µM (SF-539): -92% | growth at 100 µM (SK-MEL-28): -87% | growth at 100 µM (SK-MEL-5): -93% | growth at 100 µM (UACC-62 [15]): -48% | growth at 100 µM (OVCAR-3 [16]): -69% | growth at 100 µM (TK-10): -20%
